Results on seven compounds are retold here after US20080249092A1, “Novel Quinoline Compounds Capable Of Binding At The Cb2 Receptor” (priority 2006, published 2008).

Counter-ions that a name gives are not always drawn.

The target in the first assay is T1, human cannabinoid CB2 receptor (Homo sapiens, UniProt P34972).
T1 construct: expressed in transfected cells; host or cells: Saccharomyces cerevisiae strain MMY23 (cassette integrated at the ura3 locus, GPD promoter)
T1 sequence (P34972 whole entry): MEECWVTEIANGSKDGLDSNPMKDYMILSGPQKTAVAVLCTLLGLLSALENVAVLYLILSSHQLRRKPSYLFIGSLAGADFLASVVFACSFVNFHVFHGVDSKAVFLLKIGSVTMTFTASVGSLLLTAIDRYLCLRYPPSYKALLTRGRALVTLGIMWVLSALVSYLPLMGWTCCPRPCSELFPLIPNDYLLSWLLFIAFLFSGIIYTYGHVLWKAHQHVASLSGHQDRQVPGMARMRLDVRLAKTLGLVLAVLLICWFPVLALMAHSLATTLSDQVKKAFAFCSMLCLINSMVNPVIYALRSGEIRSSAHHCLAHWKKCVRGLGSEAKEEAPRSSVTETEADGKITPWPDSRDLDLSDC
In words: Cannabinoid CB2 receptor agonist activity in yeast cells (FDGlu fluorescence). The class given is cell-based.
Settings: not given
The procedure: The cannabinoid CB2 receptor agonist activity of compounds of formula (I) was determined in accordance with the following experimental method.
Yeast (Saccharomyces cerevisiae) cells expressing the human cannabinoid CB2 receptor were generated by integration of an expression cassette into the ura3 chromosomal locus of yeast strain MMY23. This cassette consisted of DNA sequence encoding the human CB2 receptor flanked by the yeast GPD promoter to the 5′ end of CB2 and a yeast transcriptional terminator sequence to the 3′ end of CB2. MMY23 expresses a yeast/mammalian chimeric G-protein alpha subunit in which the C-terminal 5 amino acids of Gpa1 are replaced with the C-terminal 5 amino acids of human Gαi1/23 (as described in Brown et al. (2000), Yeast 16:11-22). Cells were grown at 30° C. in liquid Synthetic Complete (SC) yeast media (Guthrie and Fink (1991), Methods in Enzymology, Vol. 194) lacking uracil, tryptophan, adenine and leucine to late logarithmic phase (approximately 6 OD600/ml).
Agonists were prepared as 10 mM solutions in DMSO. EC50 values (the concentration required to produce 50% maximal response) were estimated using 4 fold dilutions of between 3- and 5-fold (BiomekFX, Beckman) into DMSO. Agonist solutions in DMSO (1% final assay volume) were transferred into black microtitre plates from NUNC Greiner (384-well). Cells were suspended at a density of 0.2 OD600/ml in SC media lacking histidine, uracil, tryptophan, adenine and leucine and supplemented with 10 mM 3-aminotriazole, 0.1 M sodium phosphate pH 7.0, and 120 μM fluorescein di-β-D-glucopyranoside (FDGlu). This mixture (50 ul per well) was added to agonist in the assay plates (Multidrop 384, Labsystems). After incubation at 30° C. for 24 hours, fluorescence resulting from degradation of FDGlu to fluorescein due to exoglucanase, an endogenous yeast enzyme produced during agonist-stimulated cell growth, was determined using a fluorescence microtitre plate reader (Tecan Spectrofluor or LJL Analyst excitation wavelength: 485 nm; emission wavelength: 535 nm). Fluorescence was plotted against compound concentration and iteratively curve fitted using a four parameter fit to generate a concentration effect value.
Efficacy (Emax) was calculated from the equation
Emax=Max[compound X]−Min[compound X]/Max[HU210]−Min[HU210]×100%
where Max[compound X] and Min[compound X] are the fitted maximum and minimum respectively from the concentration effect curve for compound X, and Max[HU210] and Min[HU210] are the fitted maximum and minimum respectively from the concentration effect curve for (6aR, 10aR)-3-(1,1′-Dimethylheptyl)-6a,7,10,10a-tetrahydro-1-hydroxy-6,6-dimethyl-6H-dibenzo[b,d]pyran-9-methanol (HU210; available from Tocris). Equieffective molar ratio (EMR) values were calculated from the equation
Where EC50 [compound X] is the EC50 of compound X and EC50 [HU210] is the EC50 of HU210.
pEC50 is the negative log of the EC50.
For the compound `O=S(=O)(c1ccc(Cl)cc1)c1cnc2c(NCC3CCOCC3)cccc2c1` [Example E3, 3-[(4-Chlorophenyl)sulfonyl]-N-(tetrahydro-2H-pyran-4-ylmethyl)-8-quinolinamine], the EC50 is < 1000 nM.

The same assay, now with this note: agonist activity; Saccharomyces cerevisiae cells expressing the human CB2 receptor; 24 hours at 30° C.; read-out: pEC50 at the CB2 receptor (converted).
In the case of `Cc1cc(CCNc2cccc3cc(S(=O)(=O)c4ccccc4)cnc23)ccn1` [Example E7, N-[2-(2-methyl-4-pyridinyl)ethyl]-3-(phenylsulfonyl)-8-quinolinamine hydrochloride], the EC50 is < 1000 nM.

As for `O=S(=O)(c1ccccc1)c1cnc2c(NCC3CCOCC3)cccc2c1` [Example E1, 3-(Phenylsulfonyl)-N-(tetrahydro-2H-pyran-4-ylmethyl)-8-quinolinamine], the EC50 is < 1000 nM.

Regarding `O=S(=O)(c1ccccc1)c1cnc2c(NCCc3ccncc3)cccc2c1` [Example E5, 3-(Phenylsulfonyl)-N-[2-(4-pyridinyl)ethyl]-8-quinolinamine hydrochloride], the EC50 is < 1000 nM.

As to `O=S(=O)(c1ccccc1)c1cnc2c(NCCN3CCOCC3)cccc2c1` [Example E2, N-[2-(4-Morpholinyl)ethyl]-3-(phenylsulfonyl)-8-quinolinamine hydrochloride], the EC50 was < 10000 nM.

On to `O=S(=O)(c1ccccc1)c1cnc2c(NCCC3CCOCC3)cccc2c1` [Example E6, 3-(Phenylsulfonyl)-N-[2-(tetrahydro-2H-pyran-4-yl)ethyl]-8-quinolinamine hydrochloride], for which the EC50 was < 1000 nM.

For the compound `O=S(=O)(c1ccccc1)c1cnc2c(NCc3cccnc3)cccc2c1` [Example E4, 3-(Phenylsulfonyl)-N-(3-pyridinylmethyl)-8-quinolinamine], the EC50 was < 1000 nM.
